Results reported in ChEMBL document CHEMBL1201862, “PubChem BioAssay data set” (2004).
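Briefly, cells in 96-well plates were exposed to five compound concentrations for 48 h, and endpoints were estimated by linear interpolation. Abbreviation: GI50, concentration required for 50% inhibition of growth.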 Calls of active or inactive are those of the source. No stated cut-off is given here; in the data, active = GI50 up to about 1.1 µM and inactive = higher.

Legend:
Experiment in all cases: DTP human tumour cell line panel, 48 h
[1] = system: SR
[2] = system: SK-MEL-28
[3] = system: HL-60
[4] = system: 786-0
[5] = system: OVCAR-8
[6] = system: SNB-75
[7] = system: RXF 393
[8] = system: SF-295
[9] = system: HT-29
[10] = system: HCT-116
[11] = system: HOP-92
[12] = system: NCI-H226
[13] = system: IGROV-1
[14] = system: OVCAR-5
[15] = system: UACC-257
[16] = system: COLO 205
[17] = system: MDA-MB-435
[18] = system: NCI/ADR-RES
[19] = system: PC-3
[20] = system: MDA-MB-231

Measured: GI50

O=C1CCC2CCOc3ccc(O)c1c32 (stereo not drawn)
inactive: [1] > 100 µM | [2] > 100 µM | [3] > 100 µM | [4] > 100 µM | [5] > 100 µM | [6] > 100 µM | [7] > 100 µM | [8] > 100 µM | [9] > 100 µM | [10] > 100 µM | [11] > 100 µM | [12] > 100 µM | [13] > 100 µM | [14] > 100 µM | [15] > 100 µM | [16] > 100 µM

Nc1nc(S)nc(C(=O)Nc2ccc(Cl)c(Cl)c2)c1-c1ccc(Cl)cc1
inactive: [1] 76.6 µM | [2] > 100 µM | [3] > 100 µM | [4] > 100 µM | [5] > 100 µM | [6] > 100 µM | [7] > 100 µM | [8] > 100 µM | [9] 71.4 µM | [10] 45.4 µM | [11] 93.1 µM | [12] > 100 µM | [13] > 100 µM | [14] > 100 µM | [15] > 100 µM | [16] > 100 µM

CS(=O)(=O)OCCN1CCN(C(=O)c2cccc3c(Nc4ccc(S(N)(=O)=O)cc4)c4ccccc4nc23)CC1
inactive: [1] > 100 µM | [2] > 100 µM | [3] > 63.1 µM | [4] > 100 µM | [5] > 100 µM | [6] > 100 µM | [7] > 55.2 µM | [8] > 100 µM | [9] > 100 µM | [10] > 43.9 µM | [11] > 100 µM | [12] > 100 µM | [13] > 100 µM | [14] > 100 µM | [15] > 66.7 µM | [16] > 50.8 µM

C(/COc1cccnc1)=N\NC1=NCCN1
inactive: [1] > 100 µM | [2] > 100 µM | [3] > 100 µM | [4] > 100 µM | [5] > 100 µM | [6] > 100 µM | [7] > 100 µM | [8] > 100 µM | [9] > 100 µM | [10] > 100 µM | [11] > 100 µM | [12] > 100 µM | [13] > 100 µM | [14] > 100 µM | [15] > 100 µM | [16] > 100 µM

O=C(N/N=C/c1ccco1)c1cc(I)cc(I)c1O
inactive: [2] 28.2 µM | [17] 16.9 µM | [3] 10.5 µM | [4] 15 µM | [5] 19.4 µM | [18] 20.7 µM | [6] 37.2 µM | [7] 20.7 µM | [19] 35.2 µM | [9] 6.41 µM | [10] 23.5 µM | [11] 15.6 µM | [12] 11.4 µM | [13] 15.8 µM | [14] 7.85 µM | [16] 3.02 µM

CC(NC(=O)OC(C)(C)C)C(=O)NC(Cc1ccccc1)C(=O)NCC(=O)Oc1c(Cl)c(Cl)c(Cl)c(Cl)c1Cl (stereo not drawn)
inactive: [1] 25 µM | [2] 20.7 µM | [3] 24.7 µM | [4] 21.2 µM | [5] 19.6 µM | [20] 16.6 µM | [6] 34.6 µM | [7] 17.2 µM | [19] 20.3 µM | [9] 23.7 µM | [10] 19.6 µM | [11] 12.5 µM | [12] 17.7 µM | [13] 22.8 µM | [14] 19 µM | [15] 20 µM | [16] 29.7 µM

CC(=O)OCCc1cccnc1/C=N/O
inactive: [1] > 100 µM | [2] > 100 µM | [3] > 100 µM | [4] > 100 µM | [5] > 100 µM | [6] > 100 µM | [7] > 100 µM | [8] > 100 µM | [9] > 100 µM | [10] > 100 µM | [11] > 100 µM | [12] 77.6 µM | [13] > 100 µM | [14] > 100 µM | [15] > 100 µM | [16] > 100 µM

COc1ccc(C2C3=CONC3CC3CCCCC32)cc1 (stereo not drawn)
inactive: [1] 41.9 µM | [2] 68.4 µM | [17] 47.9 µM | [3] 29.6 µM | [4] 46.7 µM | [5] 85.7 µM | [6] > 100 µM | [19] 30.6 µM | [9] > 100 µM | [10] 29.8 µM | [12] > 100 µM | [13] > 100 µM | [14] > 100 µM | [15] 80.2 µM

O/N=C/c1ccc(O)c(O)c1
inactive: [1] 37.2 µM | [2] > 100 µM | [3] 12.8 µM | [4] > 100 µM | [5] > 100 µM | [6] > 100 µM | [7] > 100 µM | [8] > 100 µM | [9] > 100 µM | [10] > 100 µM | [11] > 100 µM | [12] > 100 µM | [13] 65 µM | [14] > 100 µM | [15] > 100 µM | [16] 55.8 µM
